Literature values in patent US20240139186A1, “METHODS OF TREATING HIV” (Janssen Sciences Ireland Unlimited Company, priority 2019, published 2024).

Settings: adult and pediatric participants receiving abacavir in clinical studies

For `Nc1nc(NC2CC2)c2ncn([C@H]3C=C[C@@H](CO)C3)c2n1` [abacavir], the “hypersensitivity reactions reported, proportion of participants” value is listed as “approximately 5%”.
